Data set [1] can be described thus: Cadmium and chromium in corrosion product and pore water of treated field specimens (ICP-MS), pore water pH. The following applies: after 70 days, Experiment B. Type of data set: physicochemical. As for the experimental part:
Metal concentrations measured by inductively coupled plasma mass spectrometry (ICP-MS) of acid extracted samples.
Cadmium and chromium were measured in dry sieved corrosion products for the treated samples in Experiment B, and are presented both as ng/g dry sieved fines as well as μM in pore water (FIG. 9). These metals are typically present in Portland Cement at average concentrations of 0.34 ng/g Cd and 76 ng/g Cr. […] Aside from one chromium outlier at 71 days, metal concentrations in the dry fine material after 50 days stayed relatively constant between 400 and 800 ng/g.
Metal concentrations—micromolar levels of both cadmium and chomium—in pore water are also shown; these levels represent the concentrations which drive metal diffusion into bacterial cells on the corrosion front. Pore water concentrations increased to several μM after 70 days, and subsequently receded to less than 0.2 μM by the end of the experiment at 126 days (FIG. 9). This decrease is in pore water concentrations is due to a marked increase in surface moisture as the experiment progressed (up to 23% moisture), which diluted the released metal ions.

The conditions of data set [2]: between pH 1 and pH 6; cited from earlier work.
Data set [3] is described as follows: Leaching of metal from metal-carbon formulation in liquid media (total metal concentration). Type of data set: physicochemical.
A short description of data set [4]: Metal desorption from pre-loaded GAC in phosphate or citrate buffer solutions at various pH. Type of data set: physicochemical. As to the method: Phosphate or citrate buffering was used to stabilize pH. Points represent the mean of three observations. Error bars indicate standard deviation.
The metal leaching behavior of the GAC impregnated with Cd^2+ or CrO4^2− ions was determined using phosphate or citrate buffer solutions as described herein. […] This is consistent with studies that found cadmium and other metal cations sorbed to activated carbon most strongly at high pH. […] Also, chromate anions have increased sorption to activated carbon at low pH.
By delivering toxicity in the pH range where this transition between community types occurs, the metal-carbon formulations can prevent acidophile colonization. […] Cadmium cation sorption is more ideal for this corrosion prevention application because metal remains in solution as corrosion progresses to pH values below 6.

For data set [5], the system named is Halothiobacillus neapolitanus strains. Conditions: cited from earlier work.
The mark [6] stands for this setting: GAC impregnated with metal ions, phosphate or citrate buffer.

Bounds are passed on as bounds.

`[Cd]` [cadmium]: the “Metal concentration in pore water” value in data set [1] was “several”. Besides, in data set [2], the “Factor of increase of adsorption to activated carbon” value is 10. For the same compound, the “Total metal concentration based on leaching experiments in media” value in data set [3] (pH 3) and in data set [3] (pH 5) was 0.89 mM throughout. Further, the “pH below which desorption from GAC increases” value in data set [4] (setting [6]) is “below 6”.
For the compound `[O]=[Cr](=[O])([O-])[O-]` [CrO4^−2], the “Effect on thiosulfate oxidation” value in data set [5] is “inhibit”. Besides, the “Sorption to GAC as function of pH” value in data set [4] (setting [6]) is “sorb strongly at pH above 7 and pH below 5”. In data set [4] (pre-loaded GAC, buffered solutions), the “pH below which ions can resorb onto the carbon” value is recorded as < 4.
`[Cr]` [chromium]: the “Metal concentration in pore water” value in data set [1] is on record as “several”. In addition, the “Total metal concentration based on leaching experiments in media” value in data set [3] (pH 3) stood at 0.00456 mM; in data set [3] (pH 5), 0.000822 mM.

The values are drawn from patent publication US9924723B2 (THE REGENTS OF THE UNIVERSITY OF COLORADO, A BODY CORPORATE, priority 2013, dated 2018).
